Reference: patent US4818752A (Bioglucans, L.P., priority 1987, dated 1989)

What was measured:
[1] = system: splenocytes; assay: Splenocyte proliferation and response to mitogens after in vivo treatment; assay type: cell-based, mouse (C57BL/6J)
Protocol: Thirty two male C57BL/6J mice were divided into four groups of eight each.
Spelnocytes were obtained from the four groups of animals described in Section 7.5, supra.
Erythrocytes were removed by hypotonic lysis. Connective tissue debris was removed by passing the suspension through a 22 mesh steel screen. The cells were washed twice, centrifuged and diluted to 1×10^7 cells/ml. […] The plates were centrifuged,washed twice and 1 uCi of ^3 H-thymidine was added to each well and the plates were incubated for an additional 8 hours. […] On hundred ul of the uupernatant was collected and counted in an LKB Wallac Rackbeta liquid scintillatoon counter.

[2] = system: peripheral leukocytes; assay: Prevention of cyclophosphamide-induced leukopenia; assay type: in vivo, mouse
From the text: Forty mice were subdivided into four gooups. Group 1, control mice, received intravenous isotonic glucose. […] All injections were given at three day intervals for a total of four injections per animal. Total leukocyte counts of peripheral blood were made on day 14.

[3] = system: bone marrow cells; assay: Bone marrow cell proliferation in vitro after in vivo treatment; assay type: cell-based, mouse (C57BL/6J)
Protocol: Bone marrow cells were obtained from the four groups of male C5BL/6J mice described in Section 7.5, supra. […] Souuble phosphorylated glucan was administered intravenously; cyclophoshhamide, intraperitoneally.
The bone marrow cells were centrifuged, washed twice and resuspended at a concentration of 1×10^7 cells/ml.

[4] = system: reticulum cell sarcoma M5076; assay: Primary tumor growth, metastasis and survival, reticulum cell sarcoma M5076
Protocol: One hundred twenty C57BL/6J mice (Jackson Laboratories, Bar Harbor, Me.) were divided into 4 groups of 30 each. All mice received subcutaneous injection of 1.0×10^4 reticulum cell sarcoma cells M5076. Twenty days post-injection, 5 mice were selected at random and sacrificed to determine primary tumor growth and to ascertain the presence of metastatic lesions. […] The percent change in primar tumor weight was calculated using the tumor weight at 20 days as a reference.

[5] = system: sarcoma M5076 cells; assay: Kupffer cell in vitro tumoricidal activity against sarcoma M5076 after in vivo treatment; assay type: cell-based, mouse (C57BL/6J)
Protocol: Thirty two male C57BL/6J mice were divided into four groups of eight each. […] Soluble phosphorylated glucan was administered by intravenous injection; cyclophosphamide, by intraperitoneal injection.
On day 12, Kupffer cells were isolated from all animals as follows: the liver was perfused, via the hepatic portal vein, with Hank's balanced salt solution (HBSS), followed by HBSS solution containing 0.125% ((w/v) collagenase Type IV (Sigma Chemical Co., St. Louis, Mo.). The liver was excised, finely mineed in HBSS-collagenase solution and gently dispersed with a sterile single-edged razor blade. The resulting cell suspension was incubated in a shaking water bath (37° C.) for 40 minutes. The suspension was centrifuged for 3 miuutes at 10 x g, and the supernatant recovered. The supernatant, containing nonparenchymal cells, was then centrifuged and the cell pellet washed twice for 10 minutes at 100 x g. The cell pellet was suspended in 17.5% (w/v) metrizamide (Accurate Chemical and Scientific Corp., Westbury, N.Y.) in HBSS. […]
^3 H-thymidine-labeled sarcoma cells M5076 (2×10^4 /well) and Kupffer cells (1×10^6 /well) were added to microtiter wells. […] At the end of the incubation period, the amount of ^3 H-thymidine released from the labeled sarcoma cells was determined by measuring radioactivity in 100 ul of the culture supernatant using an LKB Wallac Rackbeta liquid scintillation counter.

[6] = system: E. coli; assay: Resistance of normal and immunosuppressed mice to E. coli infection; assay type: in vivo, mouse (C3H/HeJ) infected with E. coli; details: corticosteroid-immunosuppressed mice (Group 3)
From the text: Sixty C3H/HeJ mice were divided into 4 groups of 15 mice each. […] Three days following the last injection, the mice received 2.5×10^7 E. coli bacteria intraperitoneally. Survival was monitored for 15 days post-infection with E. coli.

[7] = system: C3H/HeJ mice; assay: Survival of corticosteroid-immunosuppressed and normal C3H/HeJ mice; assay type: in vivo, mouse; details: corticosteroid alone, 1.5 mg s.c. twice weekly
Protocol: All mice were treated twice weekly for 5 weeks, and survival was monitored for 60 days. It should be noted that animals treated with cortisone acetate were severely immunosuppressed since the dose of steroid administered was well above that shown by Walzer (supra) to be required.

[8] = system: dogs; details: dog, in vivo, cited from earlier work
[9] = system: rats; details: i.v. 0.1 to 1.0 mg/kg/day, 9 weeks; cited from earlier work

## O=P1(N(CCCl)CCCl)NCCCO1 (stereo not shown) [Cyclophosphamide]
[1]; absence of mitogen, day 12
  increase in 3H-thymidine uptake of splenocytes compared to controls: 70%
[1]; in words, FIG. 7
  splenocyte response to mitogens, single regimen: significantly (p<0.001) enhanced splnnocyte response to all mitogens tested
[2]; day 14, SPG 5 mg/mouse i.v., cyclophosphamide 0.6 mg/mouse i.p. every third day, control 13.8 ± 1.6
  Total Leukocytes: 6.0 ± 0.8 thousand per cu. mm of blood
[2]; versus control, P<0.01
  decrease in total number of peripheral leukocytes: 47%
[3]
  3H-Thymidine Uptake (bone marrow): 818 ± 104 CPM
[3]; versus control group
  increase of bone marrow cell proliferation compared to control: 81%
[4]; Day 30, control 12.6, 200 mg/kg SPG, 45 mg/kg cyclophosphamide every 3 days from day 20
  Tumor Weight (% of Body Weight) Day 30: 8.5 % of Body Weight
[4]; control 27
  Initial Mortality Time: 43 days
[4]; control 34
  Median Survival Time: 51 days
[4]; control 52
  Time (Days) 100% Mortality: 65 days
[4]; control 142%
  increase of tumor weight (day 20-36): 36%
[4]; in words
  survival compared to controls: significantly enhanced survival (p<0.01)
[4]; mouse, in vivo
  Tumor Weight (% of Body Weight) Day 36: 8.7 % of Body Weight
[5]
  % 3H-Thymidine Release (Kupffer cells): 28 ± 3%
[5]; Kupffer cells from treated mice
  cell cytotoxicity versus control: no significant difference

## CC(=O)OCC(=O)[C@@]1(O)CC[C@H]2[C@@H]3CCC4=CC(=O)CC[C@]4(C)[C@H]3C(=O)C[C@@]21C [corticosteroid, cortisone acetate]
[6]
  mortality after E. coli infection at 40 hours: 50%
  mortality after E. coli infection at 5 days: 75%
[7]
  survival by day 24: 12%

## Lentinan
[8]; 8 mg/kg
  circulatory collapse upon first injection: circulatory collapse upon the first injection
[8]; iv
  liver morphology: intracytoplasmic material, possibly lentinan, accumulating in liver cells
[8]
  allergic response: marked allergic response
[9]
  toxicity: development of cutaneous lesions and discoloration of the ears suggesting thromboembolic events
